Measured values published in PMC9782626, “Copper(II) Complexes of 5–Fluoro–Salicylaldehyde: Synthesis, Characterization, Antioxidant Properties, Interaction with DNA and Serum Albumins” (Molecules, 2022).

Assay: Reduction of hydrogen peroxide
Type: biochemical
Conditions: compound 0.1 mM, 10 min, pH 7.4
From the text: For the above reasons, the antioxidant ability of 5–F–saloH and Cu(II) complexes 1–5 has been evaluated via their scavenging activity towards DPPH and ABTS radicals, as well as the ability to reduce H2O2, and in comparison with that of well-known antioxidant agents such as nordihydroguaiaretic acid (NDGA), butylated hydroxytoluene (ΒHΤ), 6–hydroxy–2,5,7,8–tetramethylchromane–2–carboxylic acid (trolox) and L–ascorbic acid (these are the most commonly used standard reference antioxidant agents). The DPPH-radical assay was developed in the 1950s and this method has been used to assess the antioxidant capacity of several metal complexes. The DPPH–scavenging ability of compounds has often been related to their ability to prevent ageing, cancer and inflammation. The ability of a compound to scavenge the cationic ABTS radicals (ABTS^+●) has been considered a measure of its total antioxidant activity. Further, hydrogen peroxide has the ability to penetrate biological membranes and, although it is not very reactive itself, it can sometimes be toxic since it may give rise to hydroxyl radicals in cells. For this reason, the removal of H2O2 is very important for the protection of living systems. When a compound is incubated with H2O2 using a peroxidase assay system, the loss of H2O2 can be measured.
S1 Antioxidant activity assay
The antioxidant activity of the compounds was evaluated via their ability to scavenge in vitro free radicals such as DPPH and ABTS and to reduce H 2O2. All the experiments were carried out at least in triplicate and the standard deviation of absorbance was less than 10% of the mean.
S1.1 Determination of the reducing activity of the radical DPPH […]
S1.3 Reduction of hydrogen peroxide
The ability of the com pounds to reduce hydrogen peroxide (H2O2) was est imated according to the method descr ibed in the literature [S2]. The reaction mixture contained 20 μL of each of the tested compounds (0.1 mM) and 5 μL H2O 2 solution (40 mM) in phosphate buffer (50 mM, pH = 7.4). The absorbance was measure d at 230 nm after 10 min.
The antioxidant activity (reduction of hydrogen peroxide) of the compounds wa s […]
expressed as the percentage decrease of t he init ial H 2O2 solution (H 2O2%). L-ascor b ic ac id (or vitamin C) was use d as a standard. […]
[DNA] = [DNA] + 1 (eq. S1) […]
where [DNA] is the concentration of DNA in base pa irs, εA = Aobsd/[compound ], εf = the extinction coefficient for the free compound and ε b = the extinction coefficient for the compound in the fully bound form. Kb is given by the ratio of slope to the y intercept in plots [DNA]/(εA-εf) versus[DNA].
S2.2CT DNA -binding studie s by viscosity measurements
The interaction of compounds with DNA has been evaluated via the study of the CT DNA viscosity ([DNA] = 0.1 mΜ) in a buffer solution (150 mM NaCl and 15 mM trisodium citrate at pH 7.0) in the presence of increasing amount of complexes (up to the value of r = 0.36). The obtained data are presented as (η/η 0)1/3 versus r, where η is the viscosity of DNA in the presence of the compound, and η0 is the viscosity of DNA alone in buffer solution.
S2.3 EB -displa cement studie s
The competition of the complexes with EB was investigated by fluorescence emission spectroscopy in order to examine whether the compounds can displace EB from its DNA-EB conjugate. The CT DNA-EB complex was formed by pre-treating 20 μM EB and 26 μM CT DNA in buffer (150 mM NaCl and 15 mM trisodium citrate at pH = 7.0).
The possible displacement of EB by the compounds and su bseq uently t he ir intercalating effect was studied by the stepwise addition of a certain amount of the solution of each

## O=Cc1cc(F)ccc1[O-].O=Cc1cc(F)ccc1[O-].[Cu+2] [Complex 1, [Cu(5–F–salo)2]]
  H2O2%, H2O2–reducing activity: 71.61 ± 0.35%

## O=Cc1cc(F)ccc1[O-].O=[N+]([O-])[O-].[Cu+2].c1cnc2c(c1)ccc1cccnc12 [Complex 4, [Cu(5–F–salo)(phen)(NO3)]]
  H2O2%, H2O2–reducing activity: 25.90 ± 0.76%

## O=Cc1cc(F)ccc1[O-].[Cl-].[Cu+2].c1ccc(Nc2ccccn2)nc1 [Complex 2, [Cu(5–F–salo)(bipyam)Cl]]
  H2O2%, H2O2–reducing activity: 99.69 ± 0.29%

## O=Cc1cc(F)ccc1[O-].O=[N+]([O-])[O-].[Cu+2].c1ccc(-c2ccccn2)nc1 [Complex 5, [Cu(5–F–salo)(bipy)(NO3)]]
  H2O2%, H2O2–reducing activity: 69.21 ± 1.10%

## CO.Cc1ccc2ccc3ccc(C)nc3c2n1.O=Cc1cc(F)ccc1[O-].[Cl-].[Cu+2] [Complex 3, [Cu(5–F–salo)(neoc)Cl].CH3OH]
  H2O2%, H2O2–reducing activity: 26.10 ± 0.66%
